In PubChem BioAssay AID330 (DTP/NCI, 2004) one finds T/C data, which are given here for 23 molecules.

This test deals with P388 leukemia ip, CD2F1 mice, survival T/C. As to the kind of experiment: NCI In Vivo Anticancer Drug Screen. Data for tumor model P388 Leukemia (intraperitoneal) in CD2F1 (CDF1) mice. The settings on record: endpoint: median survival time, higher = longer survival. A digest of the protocol: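 Mice carrying the transplanted tumor received test compound or vehicle. Survival was recorded in each group, and the value is the treated-group measurement divided by that of the vehicle-treated control group.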

[1] abbreviates: dose: 50.0 mg/kg/injection, schedule: Q01DX009 (ip), vehicle: saline.
Where [2] appears, read: dose: 100.0 mg/kg/injection, schedule: Q01DX009 (ip), vehicle: saline.
[3] abbreviates: dose: 200.0 mg/kg/injection, schedule: Q01DX009 (ip), vehicle: saline.
Setting [4] is: dose: 50.0 mg/kg/injection, schedule: Q01DX005 (ip), vehicle: Klucel (hydroxypropylcellulose) (HPC).
The mark [5] stands for this setting: dose: 100.0 mg/kg/injection, schedule: Q01DX005 (ip), vehicle: Klucel (hydroxypropylcellulose) (HPC).
Where [6] appears, read: dose: 200.0 mg/kg/injection, schedule: Q01DX005 (ip), vehicle: Klucel (hydroxypropylcellulose) (HPC).
Setting [7] is: dose: 100.0 mg/kg/injection, schedule: Q04DX003 (ip), vehicle: Klucel (hydroxypropylcellulose) (HPC).
The mark [8] stands for this setting: dose: 200.0 mg/kg/injection, schedule: Q04DX003 (ip), vehicle: Klucel (hydroxypropylcellulose) (HPC).
Setting [9] is: dose: 400.0 mg/kg/injection, schedule: Q04DX003 (ip), vehicle: Klucel (hydroxypropylcellulose) (HPC).
The mark [10] stands for this setting: dose: 100.0 mg/kg/injection, schedule: Q01DX009 (ip), vehicle: saline with Tween-80.
[11] abbreviates: dose: 200.0 mg/kg/injection, schedule: Q01DX009 (ip), vehicle: saline with Tween-80.
Where [12] appears, read: dose: 100.0 mg/kg/injection, schedule: Q04DX003 (ip), vehicle: saline with Tween-80.
Setting [13] is: dose: 200.0 mg/kg/injection, schedule: Q04DX003 (ip), vehicle: saline with Tween-80.

“And” between values parts separate entries of the source, which are not always exact repeats. Equal values may be shown once. Inconclusive results and toxic doses are left out.

As for `O=NN(CCSCCO)C(=O)NC1CCCCC1`, the T/C (dose: 6.25 mg/kg/injection, schedule: Q01DX009 (ip), vehicle: water) is 101 % of control; the T/C (dose: 12.5 mg/kg/injection, schedule: Q01DX009 (ip), vehicle: water) is 100 % of control; the T/C (dose: 25.0 mg/kg/injection, schedule: Q01DX009 (ip), vehicle: water) is 102 % of control; the T/C (dose: 50.0 mg/kg/injection, schedule: Q01DX009 (ip), vehicle: water) is 109 % of control; the T/C (dose: 100.0 mg/kg/injection, schedule: Q01DX009 (ip), vehicle: water) was 110 % of control; the T/C (dose: 200.0 mg/kg/injection, schedule: Q01DX009 (ip), vehicle: water) was 107 % of control.

Take `C=C(C)C(=O)OC1C/C(CO)=C\C(O)C/C(C)=C/C2OC(=O)C(=C)C21` (stereo unspecified): the T/C reads like this: (dose: 1.25 mg/kg/injection, schedule: Q01DX009 (ip), vehicle: saline + alcohol) 121 % of control; (dose: 2.5 mg/kg/injection, schedule: Q01DX009 (ip), vehicle: saline + alcohol) 104 % of control; (dose: 10.0 mg/kg/injection, schedule: Q01DX009 (ip), vehicle: saline + alcohol) 159 % of control; (dose: 20.0 mg/kg/injection, schedule: Q01DX009 (ip), vehicle: saline + alcohol) 167 % of control.

For `O=C1C2=C(SCCS2)C(=O)N1c1cccc2ccccc12`, the T/C is, setting by setting: under setting [1], 97 % of control; under setting [2], 97 % of control; under setting [3], 100 % of control.

On to `CCN(Cc1c(C)[nH]c2cc(N(C)C)ccc2c1=O)Cc1c(C)[nH]c2cc(N(C)C)ccc2c1=O`, for which the T/C is 90 % of control (dose: 60.0 mg/kg/injection, schedule: Q01DX005 (ip), vehicle: Klucel (hydroxypropylcellulose) (HPC)); 92 % of control (dose: 120.0 mg/kg/injection, schedule: Q01DX005 (ip), vehicle: Klucel (hydroxypropylcellulose) (HPC)); 91 % of control (dose: 240.0 mg/kg/injection, schedule: Q01DX005 (ip), vehicle: Klucel (hydroxypropylcellulose) (HPC)).

Turning to `CC(C)(O)C1CCC2(C)CC(=O)NCCN12` (stereo unspecified), the T/C was 112 % of control (dose: 25.0 mg/kg/injection, schedule: Q01DX001 (ip), vehicle: Klucel (hydroxypropylcellulose) (HPC)) and 106 % of control (dose: 50.0 mg/kg/injection, schedule: Q01DX001 (ip), vehicle: Klucel (hydroxypropylcellulose) (HPC)).

In the case of `COc1cc(OC)c(NC(=O)N(NC(=O)NNc2ccccc2)c2ccccc2)cc1Cl`, the T/C is, setting by setting: under setting [4], 100 % of control; under setting [5], 100 % of control; under setting [6], 95 % of control.

Consider `c1ccc(C2=C(c3ccccc3)C3SC4CCCC3C4(N3CCOCC3)S2)cc1` (stereo unspecified), for which the T/C was 95 % of control (dose: 100.0 mg/kg/injection, schedule: Q01DX001 (ip), vehicle: Klucel (hydroxypropylcellulose) (HPC)); 99 % of control (dose: 200.0 mg/kg/injection, schedule: Q01DX001 (ip), vehicle: Klucel (hydroxypropylcellulose) (HPC)); 93 % of control (dose: 400.0 mg/kg/injection, schedule: Q01DX001 (ip), vehicle: Klucel (hydroxypropylcellulose) (HPC)).

`O=C(c1ccc([N+](=O)[O-])cc1)c1cc2ccccc2oc1=O`: the T/C by setting is: (dose: 60.0 mg/kg/injection, schedule: Q01DX005 (ip), vehicle: saline with Tween-80) 91 % of control; (dose: 120.0 mg/kg/injection, schedule: Q01DX005 (ip), vehicle: saline with Tween-80) 94 % of control; (dose: 240.0 mg/kg/injection, schedule: Q01DX005 (ip), vehicle: saline with Tween-80) 90 % of control.

Regarding `CC1=NCC(=O)O1`, the T/C runs as follows: under setting [4], 98 % of control; under setting [5], 98 % of control; under setting [6], 102 % of control.

Turning to `COC(=O)c1ccc(SCC2(CCN3C(=O)c4ccccc4C3=O)OCCO2)cc1`, the T/C by setting is: under setting [7], 97 % of control; under setting [8], 96 % of control; under setting [9], 88 % of control.

Regarding `COc1ccc(CCN2C(=O)C(=O)N(c3ccc(C)cc3)C2=O)cc1OC`, the T/C was 96 % of control (dose: 50.0 mg/kg/injection, schedule: Q01DX009 (ip), vehicle: Klucel (hydroxypropylcellulose) (HPC)); 97 % of control (dose: 100.0 mg/kg/injection, schedule: Q01DX009 (ip), vehicle: Klucel (hydroxypropylcellulose) (HPC)); 104 % of control (dose: 200.0 mg/kg/injection, schedule: Q01DX009 (ip), vehicle: Klucel (hydroxypropylcellulose) (HPC)).

Turning to `COc1ccc(-n2c(=O)c(N=Nc3ccc(S(=O)(=O)N=C(N)N)cc3)c(O)n(-c3ccc(Cl)cc3)c2=S)cc1`, the T/C is, setting by setting: (dose: 100.0 mg/kg/injection, schedule: Q01DX002 (ip), vehicle: Klucel (hydroxypropylcellulose) (HPC)) 99 % of control; (dose: 200.0 mg/kg/injection, schedule: Q01DX002 (ip), vehicle: Klucel (hydroxypropylcellulose) (HPC)) 107 % of control; (dose: 400.0 mg/kg/injection, schedule: Q01DX002 (ip), vehicle: Klucel (hydroxypropylcellulose) (HPC)) 106 % of control.

For the molecule `CCOC(=O)c1ccccc1OP(=O)(N(C)C)N(C)C`, the T/C is 99 % of control and 100 % of control and 108 % of control (dose: 50.0 mg/kg/injection, schedule: Q01DX009 (ip), vehicle: saline with Tween-80); 99 % of control and 109 % of control and 97 % of control under setting [10]; 99 % of control and 103 % of control and 109 % of control under setting [11].

For `CCOC(=O)C(O)(CC)CCC(C)C` (stereo unspecified), the T/C is 100 % of control (dose: 50.0 mg/kg/injection, schedule: Q04DX003 (ip), vehicle: saline with Tween-80); 100 % of control under setting [12]; 100 % of control under setting [13].

As to `CC(C)CCC(=O)OCCN1CCN(CCCN2c3ccccc3Sc3ccc(C(F)(F)F)cc32)CC1`, the T/C was 114 % of control and 117 % of control (dose: 12.5 mg/kg/injection, schedule: Q01DX009 (ip), vehicle: Klucel (hydroxypropylcellulose) (HPC)); 116 % of control (dose: 25.0 mg/kg/injection, schedule: Q01DX009 (ip), vehicle: Klucel (hydroxypropylcellulose) (HPC)).

Consider `Clc1ccccc1C(c1ccccc1)(c1ccccc1)n1ccnc1`, for which the T/C under setting [1] is 113 % of control, the T/C under setting [2] was 113 % of control and the T/C under setting [3] is 113 % of control.

In the case of `Nc1ccnc(N)c1N=O`, the T/C runs as follows: under setting [12], 103 % of control; under setting [13], 99 % of control; (dose: 400.0 mg/kg/injection, schedule: Q04DX003 (ip), vehicle: saline with Tween-80) 97 % of control.

With `CC12CCC(OC3OC(CO)C(O)C(O)C3O)CC1CCC1C2CCC2(C)C(c3ccc(=O)oc3)CCC12O` (stereo unspecified), the T/C (dose: 0.35 mg/kg/injection, schedule: Q01DX009 (ip), vehicle: saline) is 96 % of control; the T/C (dose: 0.7 mg/kg/injection, schedule: Q01DX009 (ip), vehicle: saline) was 102 % of control; the T/C (dose: 1.4 mg/kg/injection, schedule: Q01DX009 (ip), vehicle: saline) was 100 % of control.

On to `N#CSCc1ccccc1Cl`, for which the T/C is 104 % of control (dose: 2.5 mg/kg/injection, schedule: Q01DX009 (ip), vehicle: saline with Tween-80); 104 % of control (dose: 5.0 mg/kg/injection, schedule: Q01DX009 (ip), vehicle: saline with Tween-80); 90 % of control (dose: 10.0 mg/kg/injection, schedule: Q01DX009 (ip), vehicle: saline with Tween-80).

In the case of `O=C1C=C(c2ccccc2)CS1`, the T/C reads like this: under setting [7], 101 % of control; under setting [8], 101 % of control; under setting [9], 101 % of control.

Regarding `CC(C)(C)NCC(O)c1ccc(O)c(CO)n1` (stereo unspecified), the T/C (dose: 50.0 mg/kg/injection, schedule: Q01DX005 (ip), vehicle: saline) was 95 % of control; the T/C (dose: 100.0 mg/kg/injection, schedule: Q01DX005 (ip), vehicle: saline) is 102 % of control; the T/C (dose: 200.0 mg/kg/injection, schedule: Q01DX005 (ip), vehicle: saline) was 95 % of control.

For the molecule `CCOC1CC2CCCN2O1` (stereo unspecified), the T/C is 103 % of control (dose: 75.0 mg/kg/injection, schedule: Q01DX009 (ip), vehicle: saline); 100 % of control (dose: 150.0 mg/kg/injection, schedule: Q01DX009 (ip), vehicle: saline); 94 % of control (dose: 300.0 mg/kg/injection, schedule: Q01DX009 (ip), vehicle: saline).

With `CC1=C(c2cc3ccccc3c3ccccc23)CCCC1`, the T/C under setting [10] was 104 % of control; the T/C under setting [11] was 98 % of control; the T/C (dose: 400.0 mg/kg/injection, schedule: Q01DX009 (ip), vehicle: saline with Tween-80) was 100 % of control.
